Data taken from the NIST ThermoML archive (doi:10.1021/je020140j).

Assay: xn = mol fraction of the nth substance listed
Conditions: 101 kPa, Liquid

OCCO [1,2-ethanediol] + O
Conditions	mass density [kg/m3]	viscosity [mPa·s]
293.15 K, x1 = 0.0312	1011.7	1.337
293.15 K, x1 = 0.0676	1024.6	1.785
293.15 K, x1 = 0.1105	1037.2	2.272
293.15 K, x1 = 0.162	1051.3	2.951
293.15 K, x1 = 0.2248	1064.8	3.941
293.15 K, x1 = 0.3031	1076.7	5.102
293.15 K, x1 = 0.4036	1087.8	6.898
293.15 K, x1 = 0.537	1097.8	9.696
293.15 K, x1 = 0.723	1105.7	14.04
293.15 K, x1 = 1	1113.7	20.83
303.15 K, x1 = 0.0312	1006.1	1.047
303.15 K, x1 = 0.0676	1018.4	1.331
303.15 K, x1 = 0.1105	1030	1.694
303.15 K, x1 = 0.162	1043.4	2.2
303.15 K, x1 = 0.2248	1056.2	2.832
303.15 K, x1 = 0.3031	1067.5	3.728
303.15 K, x1 = 0.4036	1078	4.955
303.15 K, x1 = 0.537	1087	6.749
303.15 K, x1 = 0.723	–	9.399
303.15 K, x1 = 1	–	13.65
313.15 K, x1 = 0.0312	1001.3	0.835
313.15 K, x1 = 0.0676	1010.6	1.022
313.15 K, x1 = 0.1105	1021.9	1.319
313.15 K, x1 = 0.162	1034.7	1.677
313.15 K, x1 = 0.2248	1046.8	2.132
313.15 K, x1 = 0.3031	1057.9	2.756
313.15 K, x1 = 0.4036	1067.9	3.575
313.15 K, x1 = 0.537	1077.1	4.776
313.15 K, x1 = 0.723	1085.8	6.449
313.15 K, x1 = 1	1093.6	9.443
323.15 K, x1 = 0.0312	994.9	0.685
323.15 K, x1 = 0.0676	1005.1	0.868
323.15 K, x1 = 0.1105	1015.1	1.064
323.15 K, x1 = 0.162	1027.4	1.322
323.15 K, x1 = 0.2248	1038.6	1.657
323.15 K, x1 = 0.3031	1049.2	2.113
323.15 K, x1 = 0.4036	1059	2.709
323.15 K, x1 = 0.537	1068	3.593
323.15 K, x1 = 0.723	1076.7	4.837
323.15 K, x1 = 1	1084.7	6.992
333.15 K, x1 = 0.0312	989.8	0.576
333.15 K, x1 = 0.0676	997.9	0.713
333.15 K, x1 = 0.1105	1007.2	0.875
333.15 K, x1 = 0.162	1019.2	1.073
333.15 K, x1 = 0.2248	1030.3	1.312
333.15 K, x1 = 0.3031	1040.6	1.626
333.15 K, x1 = 0.4036	1050.3	2.053
333.15 K, x1 = 0.537	1059.2	2.684
333.15 K, x1 = 0.723	1068	3.51
333.15 K, x1 = 1	1076.4	5.06
343.15 K, x1 = 0.0312	983.7	0.498
343.15 K, x1 = 0.0676	991.5	0.597
343.15 K, x1 = 0.1105	1000.4	0.728
343.15 K, x1 = 0.162	1011.5	0.881
343.15 K, x1 = 0.2248	1022.3	1.071
343.15 K, x1 = 0.3031	1031.9	1.32
343.15 K, x1 = 0.4036	1041.3	1.648
343.15 K, x1 = 0.537	1050.1	2.136
343.15 K, x1 = 0.723	1058.8	2.817
343.15 K, x1 = 1	1067.5	3.987
353.15 K, x1 = 0.0312	977.1	0.434
353.15 K, x1 = 0.0676	984.7	0.525
353.15 K, x1 = 0.1105	993.6	0.629
353.15 K, x1 = 0.162	1003.8	0.758
353.15 K, x1 = 0.2248	1014	0.906
353.15 K, x1 = 0.3031	1023.7	1.1
353.15 K, x1 = 0.4036	1033	1.359
353.15 K, x1 = 0.537	1042	1.748
353.15 K, x1 = 0.723	1050.9	2.296
353.15 K, x1 = 1	1060	3.021
